Laboratory results from publication PMC11642016 (International Journal of Molecular Sciences, 2024).
Values joined by “and” are separate entries in the source; they are usually repeats but may differ in a detail not shown here. Equal entries are not always repeated. Where two headings read alike, the source gives them in different places.

Assays:
[1] = system: PANC-1 and Fadu cells; experiment: CellTiter-Glo viability, statements covering both cancer cell lines; format: cell-based, human; conditions: for viability at 25 µM: Homo sapiens, in either of the cancer cell lines, read-out: drop in viability at 25 µM
Protocol: The effects of the synthesized compounds on cell viability were measured using the CellTiter-Glo® luminescent cell viability assay (Promega, Madison, WI, USA), according to the manufacturer’s instructions. […] After seeding, cells were incubated for a further 48 h before treatment. Cells were treated with the compounds for 72 h. […] After treatment, the luminescence signal was recorded using a microplate reader (BioTek Synergy 2 Multi-Mode Reader, BioTek, Winooski, VT, USA).

[2] = system: PANC-1 cells; experiment: CellTiter-Glo luminescent cell viability assay, PANC-1; conditions: for viability at 2.8 µM / viability at 8.3 µM / viability at 25 µM: Homo sapiens, PANC-1, 72 h, first-set screening; for viability at 2.8 µM: read-out: Cell Viability (% of Control) 2.8 µM, PANC-1; for viability at 8.3 µM: read-out: Cell Viability (% of Control) 8.3 µM, PANC-1; for viability at 25 µM: read-out: Cell Viability (% of Control) 25 µM, PANC-1; for PANC-1 Cell viability (% of controll): dose–response, individual replicates
Protocol: (§1) Primary fibroblast cultures were prepared from human skin biopsies and maintained in DMEM supplemented with 10% FBS, 1% penicillin-streptomycin, and 1% MEM Non-Essential Amino Acids Solution (Thermo Fisher Scientific). […] All cell lines were cultured in a humidified atmosphere at 37 °C and 5% CO2, passaged twice a week, and the experiments were performed on cells between passage 5 and 15. The cell lines were routinely screened for the absence of mycoplasma infection (DAPI staining).
(§2) The effects of the synthesized compounds on cell viability were measured using the CellTiter-Glo® luminescent cell viability assay (Promega, Madison, WI, USA), according to the manufacturer’s instructions. Briefly, cells were seeded onto a flat-bottomed, white 96-well plate (BRANDplates, cat. no.: 781965)), with the following densities: PANC-1: 750 cells/well, Fadu: 2000 cells/well, primary fibroblasts: 2000 cells/well, HEK293T WT: 1000 cells/well, HEK293T CLPP^−/−: 2500 cells/well. After seeding, cells were incubated for a further 48 h before treatment. Cells were treated with the compounds for 72 h. Three concentrations (25.0 µM; 8.3 µM; 2.8 µM) were applied during the initial cell viability screening, while for the determination of dose–response curves, 1.5-fold serially diluted compound concentrations were applied (range: 26 µM–0.7 µM). After treatment, the luminescence signal was recorded using a microplate reader (BioTek Synergy 2 Multi-Mode Reader, BioTek, Winooski, VT, USA).
(§3) Data analysis was performed using GraphPad Prism 9.5.0 software (GraphPad Software, San Diego, CA, USA). […] The dose–response curves were generated by four-parameter nonlinear regression, and the IC50 values were determined as the means ± SEM of the best-fit values of 3 independent measurements. The R^2 values were consistently above 0.93, indicating a strong fit of the model to the experimental data (Supplementary S.89). […] Dunnett’s post hoc test was applied to adjust for multiple comparisons, minimizing the likelihood of false positive results. Assumptions for ANOVA, including normality (assessed via QQ plots) and homogeneity of variance (tested using the Brown–Forsythe test), were verified. The following significance levels were applied: * p < 0.05, ** p < 0.01, *** p < 0.001, **** p < 0.0001. […] The tumor selectivity of the compounds was quantitatively characterized by the selectivity index (SI). This parameter was calculated as the ratio of the average best-fit IC50 value for primary fibroblasts and the best-fit IC50 value for the corresponding tumor cells (PANC-1 or Fadu).

[3] = system: Fadu cells; experiment: CellTiter-Glo luminescent cell viability assay, Fadu; conditions: for viability at 2.8 µM / viability at 8.3 µM / viability at 25 µM: Homo sapiens, FaDu, first-set screening; for viability at 2.8 µM: read-out: Cell Viability (% of Control) 2.8 µM, Fadu; for viability at 8.3 µM: read-out: Cell Viability (% of Control) 8.3 µM, Fadu; for viability at 25 µM: read-out: Cell Viability (% of Control) 25 µM, Fadu; for Fadu Cell viability (% of controll): dose–response, individual replicates
[4] = system: HEK293T CLPP^−/− cells; experiment: CellTiter-Glo cell viability assay, HEK293T CLPP−/− (ClpP dependence); conditions: for HEK293T CLPP-/- Cell viability (% of controll): individual replicates;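 on all read-outs here: CellTiter-Glo luminescent signal read on a microplate reader once HEK293T CLPP−/− cells had been exposed to compounds for 72 h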
Protocol: as §1, §2, §3

[5] = system: HEK293T WT cells; experiment: CellTiter-Glo cell viability assay, HEK293T WT; conditions: for HEK293T WT Cell viability (% of controll): 72 h, dose–response, individual replicates
Protocol: as §1, §2, §3

[6] = system: PANC-1 cells; experiment: Colony formation (clonogenic) assay; format: cell-based, human; conditions: 4 µM
[7] = system: non-tumorous primary fibroblast cells; experiment: CellTiter-Glo luminescent cell viability assay, primary fibroblasts; conditions: for Primer fibroblast Cell viability (% of controll): 72 h, dose–response, individual replicates
Protocol: as §1, §2, §3

[8] = 72 h, 2.8 µM, 72 h, mean ± SD, n = 2
[9] = 72 h, 8.3 µM, 72 h, mean ± SD, n = 2
[10] = 72 h, 25 µM, 72 h, mean ± SD, n = 2

NCC#Cc1ccc(CN2C(=O)C3=C(CCN(Cc4cccc(-n5cc(-c6ccccc6)nn5)c4)C3)N3CCN=C23)cc1 [3b]
viability at 25 µM [1]: 0 to 1%
viability at 2.8 µM ([2]; 2.8 µM, 72 h, mean ± SD, n = 2): 103 ± 8%
viability at 8.3 µM ([2]; 8.3 µM, 72 h, mean ± SD, n = 2): 84 ± 2%
viability at 25 µM ([2]; 25 µM, 72 h, mean ± SD, n = 2): 0%
viability at 2.8 µM [3, 8]: 103 ± 2%
viability at 8.3 µM [3, 9]: 95 ± 3%
viability at 25 µM [3, 10]: 22 ± 4%

NCC#Cc1cccc(CN2C(=O)C3=C(CCN(Cc4cccc(-n5cc(-c6ccccc6)nn5)c4)C3)N3CCN=C23)c1 [4b]
viability at 25 µM [1]: 0 to 1%
viability at 2.8 µM ([2]; 2.8 µM, 72 h, mean ± SD, n = 2): 87 ± 5%
viability at 8.3 µM ([2]; 8.3 µM, 72 h, mean ± SD, n = 2): 70%
viability at 25 µM ([2]; 25 µM, 72 h, mean ± SD, n = 2): 0%
viability at 2.8 µM [3, 8]: 76 ± 1%
viability at 8.3 µM [3, 9]: 34 ± 3%
viability at 25 µM [3, 10]: 0%

CNCC#Cc1cccc(CN2C(=O)C3=C(CCN(Cc4ccc(-n5cc(-[c-]6cccc6)nn5)cc4)C3)N3CCN=C23)c1.[Fe+2].c1cc[cH-]c1 [38a]
HEK293T CLPP-/- Cell viability (% of controll) ([4]; 0.4 μM, 72 h, dose–response, listed as CZT456, 0.4 µM): 109 % of controll and 108 % of controll and 110 % of controll and 114 % of controll
HEK293T CLPP-/- Cell viability (% of controll) ([4]; 0.6 μM, 72 h, dose–response, listed as CZT456, 0.6 µM): 111 % of controll and 109 % of controll and 110 % of controll
HEK293T CLPP-/- Cell viability (% of controll) ([4]; 1.0 μM, 72 h, dose–response, listed as CZT456, 1 µM): 105 % of controll and 107 % of controll and 106 % of controll
HEK293T CLPP-/- Cell viability (% of controll) ([4]; 1.6 μM, 72 h, dose–response, listed as CZT456, 1.6 µM): 92 % of controll and 96 % of controll and 103 % of controll and 93 % of controll
HEK293T CLPP-/- Cell viability (% of controll) ([4]; 2.5 μM, 72 h, dose–response, listed as CZT456, 2.5 µM): 41 % of controll and 59 % of controll and 55 % of controll and 48 % of controll
HEK293T CLPP-/- Cell viability (% of controll) ([4]; 4.0 μM, 72 h, dose–response, listed as CZT456, 4 µM): 1 % of controll and 8 % of controll and 9 % of controll
HEK293T CLPP-/- Cell viability (% of controll) ([4]; 6.4 μM, 72 h, dose–response): 0 % of controll
HEK293T CLPP-/- Cell viability (% of controll) ([4]; 16.25 μM, 72 h, dose–response): 0 % of controll
HEK293T CLPP-/- Cell viability (% of controll) ([4]; 26 μM, 72 h, dose–response): 0 % of controll
effect on the viability of HEK293T CLPP^−/− cells ([4]; dose–response, 72 h, compared with HEK293T WT): maintained
IC50 ([4]; read-out: IC50 (µM) HEK293T CLPP^−/−, 72 h treatment, ± SEM, best-fit values, n = 4): 2.4 ± 0.03 µM
concentration range of almost complete eradication of PANC-1 and Fadu cells with little to no cytotoxic effect toward fibroblasts ([1]; 72 h dose–response): 3000 to 4000 nM
HEK293T WT Cell viability (% of controll) ([5]; 0.4 μM): 106 % of controll and 101 % of controll and 99 % of controll and 100 % of controll
HEK293T WT Cell viability (% of controll) ([5]; 0.6 μM): 106 % of controll (2×) and 109 % of controll and 81 % of controll
HEK293T WT Cell viability (% of controll) ([5]; 1.0 μM): 82 % of controll and 90 % of controll and 94 % of controll and 81 % of controll
HEK293T WT Cell viability (% of controll) ([5]; 1.6 μM): 65 % of controll and 60 % of controll and 52 % of controll (2×)
HEK293T WT Cell viability (% of controll) ([5]; 2.5 μM): 11 % of controll and 6 % of controll and 5 % of controll (2×)
HEK293T WT Cell viability (% of controll) ([5]; 4.0 μM): 0 % of controll
HEK293T WT Cell viability (% of controll) ([5]; 6.4 μM): 0 % of controll
HEK293T WT Cell viability (% of controll) ([5]; 16.25 μM): 0 % of controll
HEK293T WT Cell viability (% of controll) ([5]; 26 μM): 0 % of controll
IC50 ([5]; read-out: HEK293T WT IC50 values, individual replicates n1-n4, IC50 independently determined for each replicate measurement (Supplement S.6)): 1.6 µM and 1.5 µM and 1.65 µM and 1.62 µM
IC50 ([5]; read-out: IC50 (µM) HEK293T WT, 72 h treatment, ± SEM, best-fit values, n = 4): 1.6 ± 0.04 µM
PANC-1 Cell viability (% of controll) ([2]; 0.7 μM, 72 h): 112 % of controll and 107 % of controll and 109 % of controll
PANC-1 Cell viability (% of controll) ([2]; 1 μM, 72 h): 107 % of controll and 114 % of controll and 110 % of controll
PANC-1 Cell viability (% of controll) ([2]; 1.5 μM, 72 h): 116 % of controll and 119 % of controll and 108 % of controll
PANC-1 Cell viability (% of controll) ([2]; 2.3 μM, 72 h): 97 % of controll and 105 % of controll and 115 % of controll
PANC-1 Cell viability (% of controll) ([2]; 3.4 μM, 72 h): 2 % of controll (2×) and 4 % of controll
PANC-1 Cell viability (% of controll) ([2]; 5.1 μM, 72 h): 0 % of controll
PANC-1 Cell viability (% of controll) ([2]; 7.7 μM, 72 h): 0 % of controll
PANC-1 Cell viability (% of controll) ([2]; 17.3 μM, 72 h): 0 % of controll
PANC-1 Cell viability (% of controll) ([2]; 26 μM, 72 h): 0 % of controll
Cell Viability (% of Control) 2.8 µM ([2]; PANC-1, 2.8 µM, 72 h, second-set screening, mean ± SD, n = 2): 44 ± 41 % of Control
Cell Viability (% of Control) 8.3 µM ([2]; PANC-1, 8.3 µM, 72 h, second-set screening, mean ± SD, n = 2): 0 ± 0 % of Control
Cell Viability (% of Control) 25 µM ([2]; PANC-1, 25 µM, 72 h, second-set screening, mean ± SD, n = 2): 0 ± 0 % of Control
Selectivity Index (SI) Fibroblast/PANC-1 ([2]; ratio of mean best-fit IC50 for primary fibroblasts and best-fit IC50 for PANC-1): 1.7
IC50 ([2]; read-out: IC50 Value ± SEM PANC-1, 72 h treatment, best-fit values, n = 3): 2700 ± 70 nM
IC50 ([2]; read-out: PANC-1 IC50 values, Mean, mean of independently fitted replicate IC50 values (Supplement S.6)): 2710 nM
IC50 ([2]; read-out: PANC-1 IC50 values, individual replicates n1-n3, IC50 independently determined for each replicate measurement (Supplement S.6)): 2790 nM and 2620 nM and 2720 nM
viable cells / colonies after shorter exposure ([6]; 24 h treatment followed by 5 days post-incubation): left only traces of viable cells
viable cells / colonies after longer exposure ([6]; 72 h treatment followed by 3 days post-incubation): no viable cells were discernible
Fadu Cell viability (% of controll) ([3]; 0.7 μM, 72 h): 109 % of controll and 115 % of controll and 106 % of controll
Fadu Cell viability (% of controll) ([3]; 1 μM, 72 h): 110 % of controll and 106 % of controll and 105 % of controll
Fadu Cell viability (% of controll) ([3]; 1.5 μM, 72 h): 102 % of controll and 103 % of controll and 100 % of controll
Fadu Cell viability (% of controll) ([3]; 2.3 μM, 72 h): 96 % of controll and 91 % of controll and 87 % of controll
Fadu Cell viability (% of controll) ([3]; 3.4 μM, 72 h): 43 % of controll and 13 % of controll (2×)
Fadu Cell viability (% of controll) ([3]; 5.1 μM, 72 h): 0 % of controll
Fadu Cell viability (% of controll) ([3]; 7.7 μM, 72 h): 0 % of controll
Fadu Cell viability (% of controll) ([3]; 17.3 μM, 72 h): 0 % of controll
Fadu Cell viability (% of controll) ([3]; 26 μM, 72 h): 0 % of controll
Cell Viability (% of Control) 2.8 µM ([3]; Fadu, 2.8 µM, 72 h, second-set screening, mean ± SD, n = 2): 85 ± 16 % of Control
Cell Viability (% of Control) 8.3 µM ([3]; Fadu, 8.3 µM, 72 h, second-set screening, mean ± SD, n = 2): 0 ± 1 % of Control
Cell Viability (% of Control) 25 µM ([3]; Fadu, 25 µM, 72 h, second-set screening, mean ± SD, n = 2): 0 ± 0 % of Control
Selectivity Index (SI) Fibroblast/Fadu ([3]; ratio of mean best-fit IC50 for primary fibroblasts and best-fit IC50 for Fadu): 1.6
IC50 ([3]; read-out: Fadu IC50 values, individual replicates n1-n3, IC50 independently determined for each replicate measurement (Supplement S.6)): 3.2 µM and 2.75 µM (2×)
IC50 ([3]; read-out: IC50 Value ± SEM Fadu, 72 h treatment, best-fit values, n = 3): 2900 ± 60 nM
Primer fibroblast Cell viability (% of controll) ([7]; 0.7 μM): 97 % of controll and 105 % of controll and 109 % of controll
Primer fibroblast Cell viability (% of controll) ([7]; 1 μM): 111 % of controll and 113 % of controll and 100 % of controll
Primer fibroblast Cell viability (% of controll) ([7]; 1.5 μM): 105 % of controll and 113 % of controll and 100 % of controll
Primer fibroblast Cell viability (% of controll) ([7]; 2.3 μM): 105 % of controll and 107 % of controll and 101 % of controll
Primer fibroblast Cell viability (% of controll) ([7]; 3.4 μM): 108 % of controll (2×) and 100 % of controll
Primer fibroblast Cell viability (% of controll) ([7]; 5.1 μM): 9 % of controll (2×) and 6 % of controll
Primer fibroblast Cell viability (% of controll) ([7]; 7.7 μM): 0 % of controll
Primer fibroblast Cell viability (% of controll) ([7]; 17.3 μM): 0 % of controll
Primer fibroblast Cell viability (% of controll) ([7]; 26 μM): 0 % of controll
IC50 ([7]; read-out: IC50 Value ± SEM Primary Fibroblast, 72 h treatment, best-fit values, n = 3): 4600 ± 830 nM
IC50 ([7]; read-out: Primary fibroblast IC50 values, Mean, mean of independently fitted replicate IC50 values (Supplement S.6), ONC201 value mathematically estimated from inflection point): 4630 nM
IC50 ([7]; read-out: Primary fibroblast IC50 values, individual replicates n1-n3, IC50 independently determined for each replicate (Supplement S.6), ONC201 value mathematically estimated from inflection point, viability stayed above 50%): 4800 nM and 4280 nM
